GI and IC50 data for two molecules are collected here from ChEMBL document CHEMBL4043187, “Synthesis and biological evaluation of N9-cis-cyclobutylpurine derivatives for use as cyclin-dependent kinase (CDK) inhibitors” (Bioorg Med Chem Lett, 2017).

Broadly, the IC50 is the concentration at which inhibition is half-maximal.

The test system of one experiment is MCF7. Kind of experiment: Growth inhibition of human MCF7 cells after 72 hrs by SRB assay. The experiment is classed as functional. (In general: In SRB staining, fixed cells bind dye roughly in proportion to their protein.)
Experiment [1] concerns the target Cyclin-dependent kinase 1/cyclin B1 (Homo sapiens, UniProt P06493). The experiment in a line: Inhibition of human CDK1/CyclinB. The experiment is classed as protein-complex assay.
The target of another experiment is CDK9/cyclin T1 (Homo sapiens, UniProt P50750). The experiment in a line: Inhibition of human CDK9/CyclinT1. The experiment is classed as protein-complex assay.
Sequence of CDK9/cyclin T1 (O60563 whole entry): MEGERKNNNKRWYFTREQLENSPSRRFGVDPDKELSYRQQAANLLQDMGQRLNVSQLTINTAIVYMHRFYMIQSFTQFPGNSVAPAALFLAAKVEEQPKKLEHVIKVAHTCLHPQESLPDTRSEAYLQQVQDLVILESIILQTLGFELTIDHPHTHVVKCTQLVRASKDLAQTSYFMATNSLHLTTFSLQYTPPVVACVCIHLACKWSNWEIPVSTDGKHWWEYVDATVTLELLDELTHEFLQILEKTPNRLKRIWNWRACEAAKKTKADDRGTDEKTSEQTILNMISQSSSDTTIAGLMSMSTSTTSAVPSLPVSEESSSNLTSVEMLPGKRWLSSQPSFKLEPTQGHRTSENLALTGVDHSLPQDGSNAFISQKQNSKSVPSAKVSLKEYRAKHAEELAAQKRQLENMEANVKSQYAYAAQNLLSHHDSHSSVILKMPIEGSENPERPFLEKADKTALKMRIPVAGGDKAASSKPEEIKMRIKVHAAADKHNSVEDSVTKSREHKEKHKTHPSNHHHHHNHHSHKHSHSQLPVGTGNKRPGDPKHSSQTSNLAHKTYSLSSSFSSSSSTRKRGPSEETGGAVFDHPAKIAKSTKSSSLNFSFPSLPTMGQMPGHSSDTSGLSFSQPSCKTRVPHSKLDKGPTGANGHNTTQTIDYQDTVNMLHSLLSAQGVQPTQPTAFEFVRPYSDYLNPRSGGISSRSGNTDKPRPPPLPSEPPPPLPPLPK
Sequence of CDK9/cyclin T1 (P50750 whole entry): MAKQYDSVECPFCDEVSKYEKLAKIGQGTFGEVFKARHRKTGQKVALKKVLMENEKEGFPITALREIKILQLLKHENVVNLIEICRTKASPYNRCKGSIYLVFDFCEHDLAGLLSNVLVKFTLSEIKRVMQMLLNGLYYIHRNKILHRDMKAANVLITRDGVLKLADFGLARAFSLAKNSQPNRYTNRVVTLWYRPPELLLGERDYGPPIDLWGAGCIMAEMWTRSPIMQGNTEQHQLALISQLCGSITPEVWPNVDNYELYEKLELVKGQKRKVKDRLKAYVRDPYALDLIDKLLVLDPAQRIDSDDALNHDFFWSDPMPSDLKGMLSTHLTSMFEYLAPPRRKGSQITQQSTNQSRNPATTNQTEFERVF
The next experiment deals with CDK2/Cyclin A2 (Homo sapiens, UniProt P24941). The experiment in a line: Inhibition of CDK2/CyclinA (unknown origin) using ULingt-4E-BP as substrate after 1 hr in presence of ATP by fluorescence assay. The experiment is classed as protein-complex assay.
The target of another experiment is CDK4/Cyclin D3 (Homo sapiens, UniProt P11802). The experiment in a line: Inhibition of human CDK4/CyclinD3. The experiment is classed as protein-complex assay.
Sequence of CDK4/Cyclin D3 (P11802 whole entry): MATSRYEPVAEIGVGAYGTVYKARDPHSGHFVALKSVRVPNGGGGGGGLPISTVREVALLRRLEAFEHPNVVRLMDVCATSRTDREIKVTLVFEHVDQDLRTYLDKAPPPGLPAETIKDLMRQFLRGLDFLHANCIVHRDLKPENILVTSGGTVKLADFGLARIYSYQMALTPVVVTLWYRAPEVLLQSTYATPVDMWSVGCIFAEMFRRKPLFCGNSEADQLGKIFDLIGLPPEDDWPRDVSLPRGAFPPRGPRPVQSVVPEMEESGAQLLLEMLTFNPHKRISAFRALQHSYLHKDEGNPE
Sequence of CDK4/Cyclin D3 (P30281 whole entry, further chain): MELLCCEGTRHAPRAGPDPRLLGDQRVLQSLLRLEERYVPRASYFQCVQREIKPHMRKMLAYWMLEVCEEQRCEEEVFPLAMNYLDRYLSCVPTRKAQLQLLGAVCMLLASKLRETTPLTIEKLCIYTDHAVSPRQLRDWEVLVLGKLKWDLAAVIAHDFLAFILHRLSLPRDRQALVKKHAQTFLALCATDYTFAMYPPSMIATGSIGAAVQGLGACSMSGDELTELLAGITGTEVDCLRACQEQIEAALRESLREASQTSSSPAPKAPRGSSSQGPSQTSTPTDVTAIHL
Another experiment has as its target CDK6/cyclin D3 (Homo sapiens, UniProt Q00534). The experiment in a line: Inhibition of human CDK6/CyclinD3. The experiment is classed as protein-complex assay.
For the next experiment, the target named is CDK7/Cyclin H/MNAT1 (Homo sapiens, UniProt P50613). Kind of experiment: Inhibition of human CDK7/CyclinH/MAT1. The experiment is classed as protein-complex assay.
Sequence of CDK7/Cyclin H/MNAT1 (P51946 whole entry): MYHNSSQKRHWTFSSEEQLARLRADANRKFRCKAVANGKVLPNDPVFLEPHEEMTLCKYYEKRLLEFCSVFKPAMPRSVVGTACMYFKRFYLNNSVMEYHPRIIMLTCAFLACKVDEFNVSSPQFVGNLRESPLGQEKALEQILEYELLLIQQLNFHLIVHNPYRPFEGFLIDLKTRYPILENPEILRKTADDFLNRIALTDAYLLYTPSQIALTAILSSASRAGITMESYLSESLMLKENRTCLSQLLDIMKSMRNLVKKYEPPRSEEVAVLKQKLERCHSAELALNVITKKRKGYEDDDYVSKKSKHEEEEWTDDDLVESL
Sequence of CDK7/Cyclin H/MNAT1 (P50613 whole entry): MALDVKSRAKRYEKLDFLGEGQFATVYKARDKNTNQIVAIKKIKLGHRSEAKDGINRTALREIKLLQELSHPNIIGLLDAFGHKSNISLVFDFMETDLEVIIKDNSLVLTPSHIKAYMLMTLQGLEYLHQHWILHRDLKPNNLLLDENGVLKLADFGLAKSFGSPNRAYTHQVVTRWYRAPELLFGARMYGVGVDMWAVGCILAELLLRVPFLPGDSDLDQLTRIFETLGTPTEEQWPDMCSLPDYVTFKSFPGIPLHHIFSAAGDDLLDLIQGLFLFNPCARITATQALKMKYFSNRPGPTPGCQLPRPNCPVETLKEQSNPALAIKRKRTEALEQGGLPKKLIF
Sequence of CDK7/Cyclin H/MNAT1 (P51948 whole entry, further chain): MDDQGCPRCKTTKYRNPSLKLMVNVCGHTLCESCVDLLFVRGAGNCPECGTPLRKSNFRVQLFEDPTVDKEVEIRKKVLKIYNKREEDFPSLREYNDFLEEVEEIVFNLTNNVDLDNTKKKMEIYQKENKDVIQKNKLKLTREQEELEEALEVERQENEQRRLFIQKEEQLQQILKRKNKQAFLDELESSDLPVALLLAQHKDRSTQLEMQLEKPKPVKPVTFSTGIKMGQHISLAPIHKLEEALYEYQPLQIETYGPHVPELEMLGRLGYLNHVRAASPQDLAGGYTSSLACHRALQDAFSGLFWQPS
The target of experiment [2] is Cyclin-dependent kinase 5/CDK5 activator 1 (Homo sapiens, UniProt Q00535). The experiment in a line: Inhibition of CDK5/p35 (unknown origin) using ULingt-4E-BP as substrate after 1 hr in presence of ATP by fluorescence assay. The experiment is classed as protein-complex assay.
Sequence of Cyclin-dependent kinase 5/CDK5 activator 1 (Q00535 whole entry): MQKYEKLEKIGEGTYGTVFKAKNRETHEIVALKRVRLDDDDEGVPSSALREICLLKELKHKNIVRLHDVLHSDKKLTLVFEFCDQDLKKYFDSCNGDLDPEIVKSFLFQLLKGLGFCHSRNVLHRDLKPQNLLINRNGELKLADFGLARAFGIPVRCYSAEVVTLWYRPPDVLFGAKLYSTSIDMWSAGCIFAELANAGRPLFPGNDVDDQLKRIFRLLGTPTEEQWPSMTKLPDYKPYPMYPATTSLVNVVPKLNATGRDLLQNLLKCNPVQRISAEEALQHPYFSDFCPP
Sequence of Cyclin-dependent kinase 5/CDK5 activator 1 (Q15078 whole entry, further chain): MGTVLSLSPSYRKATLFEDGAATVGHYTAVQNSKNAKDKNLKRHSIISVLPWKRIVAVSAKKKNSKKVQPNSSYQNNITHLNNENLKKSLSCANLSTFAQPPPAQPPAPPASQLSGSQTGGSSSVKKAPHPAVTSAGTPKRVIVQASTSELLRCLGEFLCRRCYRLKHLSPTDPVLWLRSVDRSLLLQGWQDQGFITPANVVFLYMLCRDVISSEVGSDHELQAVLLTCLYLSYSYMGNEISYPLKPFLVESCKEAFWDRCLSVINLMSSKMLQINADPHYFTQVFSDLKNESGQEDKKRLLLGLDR
The subject of a further experiment is HCT-116. Kind of experiment: Growth inhibition of human HCT116 cells after 72 hrs by SRB assay. The experiment is classed as functional.

Sequence of CDK6/cyclin D3 (P30281 whole entry): as the sequence (P30281 whole entry, further chain) above
Sequence of CDK6/cyclin D3 (Q00534 whole entry): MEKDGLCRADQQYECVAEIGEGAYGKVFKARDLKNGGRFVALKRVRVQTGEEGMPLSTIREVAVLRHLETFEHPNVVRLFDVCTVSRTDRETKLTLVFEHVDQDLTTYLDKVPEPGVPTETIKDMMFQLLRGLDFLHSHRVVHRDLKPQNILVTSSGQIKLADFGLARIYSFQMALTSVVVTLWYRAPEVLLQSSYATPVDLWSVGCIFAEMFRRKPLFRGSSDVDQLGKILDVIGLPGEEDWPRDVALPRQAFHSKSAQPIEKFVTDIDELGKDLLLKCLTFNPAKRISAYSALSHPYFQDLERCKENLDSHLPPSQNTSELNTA
Sequence of Cyclin-dependent kinase 1/cyclin B1 (P06493 whole entry): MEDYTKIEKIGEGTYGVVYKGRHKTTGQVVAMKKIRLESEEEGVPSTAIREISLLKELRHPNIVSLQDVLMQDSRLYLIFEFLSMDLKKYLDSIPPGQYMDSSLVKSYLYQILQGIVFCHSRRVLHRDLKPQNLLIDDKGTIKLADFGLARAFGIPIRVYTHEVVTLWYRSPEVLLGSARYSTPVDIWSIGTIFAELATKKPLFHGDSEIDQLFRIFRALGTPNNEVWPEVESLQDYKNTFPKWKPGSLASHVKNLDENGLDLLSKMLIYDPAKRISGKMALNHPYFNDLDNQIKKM
Sequence of Cyclin-dependent kinase 1/cyclin B1 (P14635 whole entry, further chain): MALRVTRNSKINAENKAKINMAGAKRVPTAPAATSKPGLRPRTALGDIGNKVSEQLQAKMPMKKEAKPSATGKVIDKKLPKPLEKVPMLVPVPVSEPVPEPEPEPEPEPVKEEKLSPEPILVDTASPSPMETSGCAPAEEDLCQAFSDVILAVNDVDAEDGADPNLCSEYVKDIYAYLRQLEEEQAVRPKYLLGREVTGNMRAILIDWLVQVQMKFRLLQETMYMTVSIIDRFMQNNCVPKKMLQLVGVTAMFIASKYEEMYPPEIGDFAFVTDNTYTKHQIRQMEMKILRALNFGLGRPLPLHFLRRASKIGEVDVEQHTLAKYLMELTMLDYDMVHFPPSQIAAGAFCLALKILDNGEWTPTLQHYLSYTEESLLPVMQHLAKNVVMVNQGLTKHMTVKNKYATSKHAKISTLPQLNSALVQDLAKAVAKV

Consider `Cc1cccc(C(=O)N[C@H]2C[C@@H](n3cnc4c(NCc5cccc(Br)c5)ncnc43)C2)n1`, for which the GI in the experiment with MCF7 worked out at 2.43 µM; in the experiment with HCT-116 it was 2.37 µM. The IC50 is 24 nM in experiment [1]; 19 nM against CDK9/cyclin T1; 2.1 nM on CDK2/Cyclin A2; 611 nM against CDK4/Cyclin D3; over 1000 nM at CDK6/cyclin D3; 359 nM on CDK7/Cyclin H/MNAT1. In experiment [2], the half-inhibitory concentration (IC50) amounted to 4.8 nM.

For the molecule `Cc1cccc(C(=O)N[C@H]2C[C@@H](n3cnc4c(NCc5cccc(Cl)c5)ncnc43)C2)n1`, the GI in the experiment with MCF7 is 2.49 µM; in the experiment with HCT-116 it was 2.14 µM. Also, the IC50 in experiment [1] was 23 nM; against CDK9/cyclin T1, 27 nM; on CDK2/Cyclin A2 it was 7.2 nM; against CDK4/Cyclin D3, over 1000 nM; against CDK6/cyclin D3, over 1000 nM; against CDK7/Cyclin H/MNAT1 it was 319 nM. Moreover, in experiment [2], the 50% inhibitory concentration (IC50) turned out to be 2.3 nM.
